The record followed here is patent publication US20120088737A2, “NOVEL ACYL GUANIDINE DERIVATIVES” (AJINOMOTO CO., INC, priority 2009, published 2012).

The term IC50 denotes the concentration needed to halve the response being measured. As a reminder, the Papp A→B is how fast a substance crosses the layer from the apical side. A higher Papp A→B goes with ready permeation.

For data set [1], the target named is T1, human NHE3 (Homo sapiens, UniProt P48764).
T1 construct: expressed in transfected cells; host or cells: OK26 cells (opossum kidney OK cells); OK26 ND sublines with opNHE1 reduced by 90% for A3
T1 sequence (P48764 26-834): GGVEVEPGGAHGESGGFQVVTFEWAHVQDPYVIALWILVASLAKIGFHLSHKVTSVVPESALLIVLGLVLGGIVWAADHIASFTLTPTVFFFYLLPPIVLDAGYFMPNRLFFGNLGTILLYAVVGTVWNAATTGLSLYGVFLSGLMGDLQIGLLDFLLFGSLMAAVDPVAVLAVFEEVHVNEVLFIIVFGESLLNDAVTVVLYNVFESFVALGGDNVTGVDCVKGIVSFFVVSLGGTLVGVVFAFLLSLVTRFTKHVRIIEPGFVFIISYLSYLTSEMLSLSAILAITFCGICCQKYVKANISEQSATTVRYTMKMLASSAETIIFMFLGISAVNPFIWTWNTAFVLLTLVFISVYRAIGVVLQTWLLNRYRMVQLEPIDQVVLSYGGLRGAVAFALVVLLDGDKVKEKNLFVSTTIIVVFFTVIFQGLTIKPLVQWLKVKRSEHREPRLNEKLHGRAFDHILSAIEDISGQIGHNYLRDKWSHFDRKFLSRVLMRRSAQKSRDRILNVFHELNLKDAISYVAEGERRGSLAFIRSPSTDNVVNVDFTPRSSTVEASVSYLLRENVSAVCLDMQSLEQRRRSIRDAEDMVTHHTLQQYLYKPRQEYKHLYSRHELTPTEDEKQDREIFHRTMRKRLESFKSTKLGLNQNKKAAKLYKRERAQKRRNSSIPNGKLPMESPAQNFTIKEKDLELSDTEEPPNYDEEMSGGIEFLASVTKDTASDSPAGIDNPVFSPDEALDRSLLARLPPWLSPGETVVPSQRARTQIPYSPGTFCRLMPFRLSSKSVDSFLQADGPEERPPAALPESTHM
Briefly: Measurements of NHE3 inhibitory activities (OK26 cells). It is filed as cell-based. The conditions noted are these: OK26 cells (opossum kidney cells overexpressing human NHE3), measurement time 5 minutes at 37° C.; read-out: hNHE3 IC50. The protocol:
(§1) HLF cells (Human hepatoma cell line) were used as cells for the test. After 1×10^4 cells/well were seeded to a 96-well plate and cultured for 3 days, they were cultured overnight under a serum-free medium. Then, the cells were incubated in a stain solution of Tetramethylammonium (TMA) Buffer (130 mM TMA-C1, 5 mM KCl, 2 mM CaCl2, 1 mM MgSO2, 25 mM glucose, 20 mM HEPES; pH 7.4) containing 40 mM NH4Cl and 1 μg/mL pH-sensitive fluorescent indicator BCECF-AM at 37° C. for 40 minutes and then BCECF was introduced into the cells. After the cells were washed once with TMA Buffer and incubated in TMA+40 mM NH4Cl solution at 37° C. for 15 minutes, the solution was removed and 20 μL/well of TMA Buffer and 10 μL/well of each test compound solution prepared with TMA Buffer were added to each well. The measurements were carried out by adding 200 μL/well of Na Buffer (130 mM, NaCl, 5 mM KCl, 2 mM CaCl2, 1 mM MgSO2, 1 mM NaH2PO4, 25 mM glucose, 20 mM HEPES; pH 7.4) or TMA Buffer (for base measurement), immediately placing it on FlexStation (Molecular Device) and then, after 10 minutes, measuring, it the two wavelengths of 505 nm (excitation wavelength)/530 nm (emission wavelength) (measurement value) and 440 nm (excitation wavelength)/530 nm (emission wavelength) (isosbestic point value). A NHE activity was calculated by dividing a measurement value by an isosbestic point value and a NHE1 inhibitory activity was calculated by the following equation. NHE1 inhibitory activity (%)=100×(1−(Measurement value [addition of each compound]−Base [addition of TMA Buffer])/(Control [addition of Na Buffer]−Base [addition of TMA Buffer]))
Pharmacological Test Example 2: Measurements of NHE3 Inhibitory Activities.
OK26 cells (OK (opossum kidney) cells in which human NHE3 genes are overexpressed) were used as cells for the test. The measurements were carried out in the same manner as described in Pharmacological Test Example 1 except that the measurement time was 5 minutes (at 37° C.) to calculate NHE3 inhibitory activities.

Data set [2] has as its target T1, human NHE3. Briefly: Improved version of measurements of NHE3 inhibitory activities (OK26 ND cell lines). It is filed as cell-based. The conditions noted are these: OK26 ND cell lines (opNHE1 expression reduced by 90%), measurement time 8 minutes at 26° C.; read-out: hNHE3 IC50. The protocol: Pharmacological Test Example 3: Improved Version of Measurements of NHE3 Inhibitory Activities
OK26 cells express endogeneous NHE1 (opNHE1). In order to evaluate NHE3 inhibitory activities more precisely, OK26 ND cell lines in which the expression level of opNHE1 is reduced by 90% were established. Measurements of NEE inhibitory activities were carried out by using the established cell lines in the same manner as described in Pharmacological Test Example 1 except that the measurement time was 8 minutes (at 26° C.) to calculate more precise NHE3 inhibitory activities.

In a further data set the target is T2, NHE1 (Homo sapiens, UniProt P19634).
T2 construct: HLF cells (Human hepatoma cell line) were used as cells for the test; endogenous in cells; host or cells: HLF cells (human hepatoma cell line)
Briefly: Measurements of NHE1 inhibitory activities (HLF cells, BCECF pH recovery). It is filed as cell-based. The note with it: HLF cells (human hepatoma cell line), measured after 10 minutes; read-out: hNHE1 IC50. On the procedure: Pharmacological Test Example 1: Measurements of NHE1 Inhibitory Activities
as §1

Data set [3] is described as follows: MDCK membrane permeability (trans-well). It is filed as in vitro ADME, Canine. The note with it: dog, apical pH 6.5 / basal pH 7.4, 37° C. The protocol: Pharmacological Test Example 4: MDCK Membrane Permeability
1×10^6 MDCK (MADIN-DARBY Canine Kidney) cells were seeded to each well and cultivated on a trans-well for 4 days (Mixed medium; DMEM: F12=1:1). The trans-well consists of a upper chamber into which cells are seeded and a lower chamber which is separated by a porous membrane and each test compound added into the upper chamber penetrates through the porous membrane to be detected in the lower chamber. The trans-well system has been used as a model for cell membrane permeability.
Buffer solution (pH 6.5) (138 mM NaCl, 2.7 mM KCl, 25 mM D-Glucose, 20 mM MES, 1.25 mM CaCl2, 0.5 mM MgCl2; pH was adjusted with KOH) was added into the upper chamber (Apical side) while Buffer solution (pH 7.4) (138 mM NaCl, 2.7 mM KCl, 25 mM D-Glucose, 20 mM HEPES, 1.25 mM CaCl2, 0.5 mM MgCl2; pH was adjusted with KOH) was added into the lower chamber (basal side). After it was pre-incubated at 37° C. for 20 minutes, 50 μM of each test compound was added thereto and then reacted at 37° C. for 1 hour. The solutions in the upper and lower chambers were collected and the concentrations of each test compound were determined by LC/MS to calculate membrane permeability values (Pm values) by the following equation. Pm[cm/sec]=(Concentration of each test compound in the basal side×1.5 mL)/(3600 sec×1.12 cm^2×Initial concentration of the added compound)

T2 sequence (P19634 whole entry): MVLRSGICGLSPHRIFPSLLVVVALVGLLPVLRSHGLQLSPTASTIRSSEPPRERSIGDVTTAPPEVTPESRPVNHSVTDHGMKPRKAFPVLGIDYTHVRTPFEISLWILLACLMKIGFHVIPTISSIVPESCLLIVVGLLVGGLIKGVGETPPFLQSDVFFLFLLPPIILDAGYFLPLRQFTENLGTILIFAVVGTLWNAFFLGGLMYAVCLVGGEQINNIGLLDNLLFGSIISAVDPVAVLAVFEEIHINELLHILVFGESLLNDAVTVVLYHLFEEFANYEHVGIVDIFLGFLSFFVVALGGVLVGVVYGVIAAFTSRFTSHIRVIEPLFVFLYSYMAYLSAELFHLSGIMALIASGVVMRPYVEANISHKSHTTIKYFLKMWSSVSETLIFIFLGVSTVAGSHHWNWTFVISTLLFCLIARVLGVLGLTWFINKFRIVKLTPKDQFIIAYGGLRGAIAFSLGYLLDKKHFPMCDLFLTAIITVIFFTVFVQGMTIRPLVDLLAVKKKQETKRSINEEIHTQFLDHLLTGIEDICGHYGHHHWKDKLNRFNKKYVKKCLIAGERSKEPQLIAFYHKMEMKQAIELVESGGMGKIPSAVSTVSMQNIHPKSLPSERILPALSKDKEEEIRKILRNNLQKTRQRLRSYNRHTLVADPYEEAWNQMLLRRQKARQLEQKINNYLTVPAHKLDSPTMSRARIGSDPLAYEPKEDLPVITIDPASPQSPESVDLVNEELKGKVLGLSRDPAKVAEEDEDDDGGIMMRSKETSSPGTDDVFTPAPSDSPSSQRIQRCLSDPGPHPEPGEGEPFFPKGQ

Take `C/C(=C\c1ccccc1-c1ccc(O)cc1)C(=O)NC(=N)N` [Example 2, N-[(E)-3-(4′-hydroxy-biphenyl-2-yl)-2-methyl-acryloyl]-guanidine]: the IC50 at human NHE3 [1] came out at 0.11 µM; on human NHE3 [2], 0.083 µM.

Take `C/C(=C\c1ccccc1-c1ccc(C(=O)O)cc1)C(=O)NC(=N)N` [Example 10, (E)-2′-(3-guanidino-2-methyl-3-oxo-propenyl)-biphenyl-4-carboxylic acid]: the IC50 on human NHE3 [1] was determined as 1.6 µM.

With `C/C(=C\c1ccccc1-c1ccc(B(O)O)cc1)C(=O)NC(=N)N` [Example 11, N-[(E)-3-(4′-boronic acid-biphenyl-2-yl)-2-methyl-acryloyl]guanidine], the values for the IC50 on human NHE3 [1], at human NHE3 [2] and at NHE1 were 0.23 µM, 0.1 µM and 1.2 µM, respectively.

For `C/C(=C\c1ccccc1-c1cccc(O)c1)C(=O)NC(=N)N` [Example 13, N-[(E)-3-(3′-hydroxy-biphenyl-2-yl)-2-methyl-acryloyl]guanidine], the results for the IC50 at human NHE3 [1] and at human NHE3 [2] were 0.21 µM and 0.11 µM, respectively.

As to `CC(=O)c1cccc(-c2ccccc2/C=C(\C)C(=O)NC(=N)N)c1` [Example 15, N-[(E)-3-(3′-acetyl-biphenyl-2-yl)-2-methyl-acryloyl]guanidine], the values for the IC50 at human NHE3 [1], at human NHE3 [2] and on NHE1 were 0.61 µM, 0.36 µM and 1.2 µM, respectively. In data set [3], the Papp A→B at 1 h, 50 μM is 1 ×10⁻⁶ cm/s.

Take `C/C(=C\c1ccccc1-c1cc(C)c(O)c(C)c1)C(=O)NC(=N)N` [Example 22, N-[(E)-3-(3′,5′-dimethyl-4′-hydroxy-biphenyl-2-yl)-2-methyl-acryloyl]-guanidine]: the values for the IC50 on human NHE3 [1], at human NHE3 [2] and at NHE1 were 0.23 µM, 0.23 µM and 3.1 µM, respectively.

For `C/C(=C\c1ccccc1-c1ccc(O)c(F)c1)C(=O)NC(=N)N` [Example 24, N-[(E)-3-(3′-fluoro-4′-hydroxy-biphenyl-2-yl)-2-methyl-acryloyl]-guanidine], the figures for the IC50 on human NHE3 [1], at human NHE3 [2] and at NHE1 were 0.47 µM, 0.21 µM and 1.2 µM, respectively.

In the case of `C/C(=C\c1ccccc1-c1ccc(O)c(O)c1)C(=O)NC(=N)N` [Example 26, N-[(E)-3-(3′,4′-dihydroxy-biphenyl-2-yl)-2-methyl-acryloyl]-guanidine], the concentration for half-maximal inhibition (IC50) at human NHE3 [1] amounted to 0.23 µM; at human NHE3 [2], 0.23 µM; on NHE1 it was 0.5 µM.

Regarding `C/C(=C\c1cc(O)c(O)cc1-c1cccc(O)c1)C(=O)NC(=N)N` [Example 36, N-[(E)-2-methyl-3-(4,5,3′-trihydroxy-biphenyl-2-yl)-acryloyl]-guanidine], the values for the IC50 at human NHE3 [1] and at human NHE3 [2] were 0.32 µM and 0.23 µM, respectively.

On to `C/C(=C\c1ccc(C)cc1-c1cccc(O)c1)C(=O)NC(=N)N` [Example 37, N-[(E)-3-(3′-hydroxy-5-methyl-biphenyl-2-yl)-2-methyl-acryloyl]-guanidine], for which the IC50 at human NHE3 [1] came to 0.18 µM; on human NHE3 [2], 0.038 µM; at NHE1, 1.6 µM.

For `C/C(=C\c1ccc(C)cc1-c1ccc(O)cc1)C(=O)NC(=N)N` [Example 47, N-[(E)-3-(4′-hydroxy-5-methyl-biphenyl-2-yl)-2-methyl-acryloyl]-guanidine], the IC50 worked out at 0.19 µM at human NHE3 [1], 0.06 µM at human NHE3 [2] and 1.6 µM on NHE1.

For `C/C(=C\c1ccc(-c2ccc(O)cc2C)cc1)C(=O)NC(=N)N` [Example 86, N-[(E)-3-(4′-hydroxy-2′-methyl-biphenyl-4-yl)-2-methyl-acryloyl]-guanidine], the IC50 at human NHE3 [1] worked out at 0.23 µM.

Take `C/C(=C\c1ccc(-c2cccc(O)c2)cc1)C(=O)NC(=N)N` [Example 87, N-[(E)-3-(3′-hydroxy-biphenyl-4-yl)-2-methyl-acryloyl]-guanidine]: at human NHE3 [1], the IC50 was 0.27 µM.

Turning to `C/C(=C\c1ccc(-c2ccccc2O)cc1)C(=O)NC(=N)N` [Example 88, N-[3-(2′-hydroxy-biphenyl-4-yl)-2-methyl-acryloyl]-guanidine], the IC50 on human NHE3 [1] came out at 0.48 µM.

`C/C(=C\c1ccc(-c2ccc(F)c(O)c2)cc1)C(=O)NC(=N)N` [Example 89, N-[(E)-3-(4′-fluoro-3′-hydroxy-biphenyl-4-yl)-2-methyl-acryloyl]-guanidine]: on human NHE3 [1], the IC50 worked out at 0.86 µM.
